Assays:
α-amylase (EC.3.2.1.1) = target: T1, α-amylase (EC.3.2.1.1) (Homo sapiens, UniProt P04746); experiment: In vitro α-amylase inhibition (starch/DNS, 540 nm); assay type: biochemical; conditions: for IC50: test concentrations 2-10 µg, read-out: α-Amylase IC50±SD (converted)
T1 sequence (P04746 16-511): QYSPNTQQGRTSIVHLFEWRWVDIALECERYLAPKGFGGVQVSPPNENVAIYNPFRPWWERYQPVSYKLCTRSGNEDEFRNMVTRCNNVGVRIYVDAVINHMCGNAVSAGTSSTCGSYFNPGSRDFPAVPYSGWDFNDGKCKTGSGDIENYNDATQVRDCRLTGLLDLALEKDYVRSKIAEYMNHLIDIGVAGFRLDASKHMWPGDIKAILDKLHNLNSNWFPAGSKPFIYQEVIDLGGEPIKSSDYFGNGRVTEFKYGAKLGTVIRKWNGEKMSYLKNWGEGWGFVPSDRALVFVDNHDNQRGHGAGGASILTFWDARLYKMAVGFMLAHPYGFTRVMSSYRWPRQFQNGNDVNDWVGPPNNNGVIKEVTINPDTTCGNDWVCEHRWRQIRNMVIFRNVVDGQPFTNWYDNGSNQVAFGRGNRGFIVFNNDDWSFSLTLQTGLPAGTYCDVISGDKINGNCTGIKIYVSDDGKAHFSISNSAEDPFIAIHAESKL
Protocol: α-Amylase enzyme and other chemical reagents are used for enzyme inhibitory activity. The characterized compounds are diluted in an analytical grad solvent (DMSO) system at 1 mg/mL solution concentration. The activity reaction of the synthesized analogues on the enzyme was treated at final concentrations of 2 to 10 µg. In the interaction between enzyme and compounds, 10 min incubation was maintained before the inhibitory activity started. The enzyme-receptor inhibition efficiency was calculated and compared with the positive control.
Sodium phosphate buffer 0.2 mM (pH 6.9 with 6 × 10^− 4 M NaCl) in 500 µL enzyme solution (0.5 mg/mL) was taken and incubated with test samples (2–10 µg/mL) at room temperature for 10 min. A starch (1%) solution of 500 µL with phosphate buffer was added to all test inhibitor samples; further, the tubes were incubated for 10 min at 28 °C. The reaction test tubes were incubated for another 5 min in the water bath (100 °C) after the addition of the color reagent dinitro salicylic acid and cooled at room temperature until reached. Finally, 10 mL of distilled water was mixed with each test tube, and the colored mixture was measured at a fixed wavelength of 540 nm. The absorbance without sample solution (blank) and control (buffer and standard drug sample) was measured at 540 nm. The α-amylase inhibition efficiency was validated using the following equation:2 [drawing 2]

[1] = ABTS cation radical scavenging (734 nm); conditions: for IC50: read-out: ABTS IC50±SD
Protocol: (§1) The experimental method principle relies on the degradation of the purple color of the DPPH radical and the blue color reduction of the ABTS cation radical. This is due to consuming the electron or hydrogen radical from the antioxidant (A-H). Both assays were measured at 517 nm and 734 nm, respectively. The distinction of color changes illustrates the potential scavenging activity of the inhibitor molecules in terms of hydrogen-donating proficiency. From this, we can conclude the anti-oxidant efficacy.
In brief, 7.0 mM ABTS in H2O and 2.5 mM potassium persulfate (1:1) were shaken well to generate ABTS cation radicals and kept in the dark at RT for 15–20 h before it is used for the experiment. After, the radical was mixed with the synthesized molecules at different concentrations (20 µM to 100 µM). The resultant solution was measured for absorbance at 734 nm. Ascorbic acid is the positive control for this experiment.1 [drawing 1]

[2] = DPPH radical scavenging (517 nm); conditions: for IC50: read-out: DPPH IC50±SD
Protocol: as §1
Methanolic DPPH solution (0.15 mM) was prepared, and 1.0 mL of DPPH solution was mixed with 3.0 mL of synthesized molecules at different concentrations (20 µM to 100 µM). The mixture was constantly swirled and stored RT for 30 min, followed by absorbance measurement at 517 nm.

human RBC = experiment: Anti-inflammatory activity: hypotonic solution-induced human RBC hemolysis (560 nm); assay type: cell-based; conditions: for IC50: induced human RBC hemolysis, read-out: Inflammatory IC50±SD
Protocol: All synthesized compounds are validated in human RBC (blood sample); the blood sample was collected from a healthy volunteer in an EDTA tube. The EDTA tube further proceeded with centrifugation at 3000 rpm for 30 min. A supernatant (which contains plasma and leucocytes) solution was isolated, and the obtained RBC (red blood cells) was further treated with Alsever’s reagent. Alsever’s reagent was prepared as follows: sodium citrate (0.8 g, 2.6 mmol), dextrose (2 g, 11.0 mmol), citric acid (0.050 g, […]), and sodium chloride (0.42 g, 7.0 mmol) were solubilized in 100 mL of distilled water. The above mixture was centrifuged for 30 min at 3000 rpm. Then, colloidal blood cells were separated, carefully transferred, and washed with 0.85% of the isosaline solution; this process continued until a clear solution appeared. Employing coagulated RBC and generated human erythrocyte hemolysis, the anti-inflammatory activity and potential of the synthesized entities were evaluated. The tested compounds are prepared at different concentrations for the inhibition activity of inflammation, along with 100 µL of a purified RBC sample utilized. All characterized samples were followed by adding 5.0 mL of trisodium phosphate (10 mM) and 5.0 mL of sodium chloride (5.0 mM) buffer solutions. After the addition of the above mixtures, the test samples are incubated for 15 min at room temperature with RBC and hypotonic mixtures. After incubation, the mixture was centrifuged at 3000 rpm for 15 min. The final supernatant liquid solution was measured at 560 nm using a UV-visible spectrophotometer.3 [drawing 3]

Row | Structure (SMILES) | α-Amylase Inhibition % (α-amylase (EC.3.2.1.1); 2 µg) [%] | α-Amylase Inhibition % (α-amylase (EC.3.2.1.1); 4 µg) [%] | ABTS Inhibition % ([1]; 20 µM) [%] | ABTS Inhibition % ([1]; 40 µM) [%] | ABTS Inhibition % ([1]; 60 µM) [%] | ABTS Inhibition % ([1]; 80 µM) [%] | ABTS Inhibition % ([1]; 100 µM) [%] | IC50 [1] [µM] | DPPH Inhibition % ([2]; 20 µM) [%] | DPPH Inhibition % ([2]; 40 µM) [%] | DPPH Inhibition % ([2]; 60 µM) [%] | DPPH Inhibition % ([2]; 80 µM) [%] | DPPH Inhibition % ([2]; 100 µM) [%] | IC50 [2] [µM] | inhibition at 20 µM (human RBC) [%] | inhibition at 40 µM (human RBC) [%] | inhibition at 60 µM (human RBC) [%] | inhibition at 80 µM (human RBC) [%] | inhibition at 100 µM (human RBC) [%] | IC50 (human RBC) [µM] | further results
1 | C[C@H]1O[C@H](O[C@H]2[C@H](O)[C@@H](O)[C@@H](O[C@H]3[C@H](O)[C@@H](O)C(O)O[C@@H]3CO)O[C@@H]2CO)[C@H](O)[C@@H](O)[C@@H]1N[C@H]1C=C(CO)[C@@H](O)[C@H](O)[C@H]1O (some centres unmarked) [Acarbose, reference compound] | 85.59 | 83.98 | – | – | – | – | – | – | – | – | – | – | – | – | – | – | – | – | – | – | α-Amylase Inhibition % (α-amylase (EC.3.2.1.1); 6 µg): 82.19%; α-Amylase Inhibition % (α-amylase (EC.3.2.1.1); 8 µg): 80.97%; α-Amylase Inhibition % (α-amylase (EC.3.2.1.1); 10 µg): 80.38%
2 | O=C1O[C@H]([C@@H](O)CO)C(O)=C1O [Ascorbic acid, reference compound] | – | – | 90 | 93 | 95 | 96 | 96.5 | 11.9 ± 0.01 | 91 | 91.8 | 93.7 | 94.3 | 96.1 | 11.81 ± 0.04 | – | – | – | – | – | – | –
3 | COC(=O)C=Cc1cc(OC)c(OC(=O)c2cccnc2)c(OC)c1 [Compound 2d, 2,6-dimethoxy-4-(3-methoxy-3-oxoprop-1-en-1-yl)phenyl nicotinate] | – | – | 56.9 | 59.6 | 62.5 | 62.6 | 63.2 | 21.57 ± 0.11 | 36.2 | 56.3 | 80.5 | 87.4 | 88.3 | 32.02 ± 0.26 | 59 | 62 | 65.4 | 75.2 | 84.4 | 20.2 ± 0.26 | –
4 | COC(=O)C=Cc1cccc(OC(=O)c2cccnc2)c1 [Compound 2f, 3-(3-Methoxy-3-oxoprop-1-en-1-yl)-phenyl nicotinate] | 79.2 | 77.89 | 27.6 | 33.8 | 41.5 | 52 | 60.1 | 81.05 ± 0.22 | 35.31 | 38.4 | 41.11 | 43.18 | 45.7 | 78.05 ± 0.08 | 31 | 37 | 42 | 45.6 | 49 | 65.24 ± 0.18 | α-Amylase Inhibition % (α-amylase (EC.3.2.1.1); 6 µg): 56.22%; α-Amylase Inhibition % (α-amylase (EC.3.2.1.1); 8 µg): 47.87%; α-Amylase Inhibition % (α-amylase (EC.3.2.1.1); 10 µg): 36.74%; IC50 (α-amylase (EC.3.2.1.1)): 4.71 µM
5 | COC(=O)C=Cc1ccccc1OC(=O)c1cccnc1 [Compound 2g, 2-(3-Methoxy-3-oxoprop-1-en-1-yl)phenyl nicotinate] | 80.38 | 73.64 | 56 | 57 | 58.1 | 60.2 | 62 | 21.85 ± 0.21 | 34.94 | 44.35 | 46.41 | 50.02 | 61.07 | 81.81 ± 0.01 | 79 | 80.2 | 80.3 | 85.6 | 86 | 85.56 ± 0.25 | α-Amylase Inhibition % (α-amylase (EC.3.2.1.1); 6 µg): 73.06%; α-Amylase Inhibition % (α-amylase (EC.3.2.1.1); 8 µg): 40.84%; α-Amylase Inhibition % (α-amylase (EC.3.2.1.1); 10 µg): 29.72%; IC50 (α-amylase (EC.3.2.1.1)): 4.79 µM
6 | O=C(Oc1ccc2c(c1)OCO2)c1cccnc1 [Compound 2h, Benzo[1,3]dioxol-5-yl nicotinate] | 74.08 | 73.2 | 69 | 71 | 72 | 72.9 | 76.7 | 16.4 ± 0.25 | 84.5 | 85.8 | 86.8 | 87.2 | 87.68 | 12.9 ± 0.19 | 52 | 63 | 64.7 | 65 | 70 | 21.7 ± 0.24 | α-Amylase Inhibition % (α-amylase (EC.3.2.1.1); 6 µg): 72.47%; α-Amylase Inhibition % (α-amylase (EC.3.2.1.1); 8 µg): 70.57%; α-Amylase Inhibition % (α-amylase (EC.3.2.1.1); 10 µg): 70.13%; IC50 (α-amylase (EC.3.2.1.1)): 6.23 µM
7 | COc1cc(C(C)=O)ccc1OC(=O)c1cccnc1 [Compound 2i, 4-Acetyl-2-methoxyphenyl nicotinate] | 77.74 | 76.42 | 41.6 | 44.7 | 49.5 | 53.9 | 60.4 | 38.43 ± 0.21 | 8.89 | 33.34 | 40.65 | 49.83 | 52.22 | 99.62 ± 0.15 | 17.6 | 25.3 | 47 | 58 | 70 | 66.97 ± 0.28 | α-Amylase Inhibition % (α-amylase (EC.3.2.1.1); 6 µg): 74.67%; α-Amylase Inhibition % (α-amylase (EC.3.2.1.1); 8 µg): 71.01%; α-Amylase Inhibition % (α-amylase (EC.3.2.1.1); 10 µg): 70.86%; IC50 (α-amylase (EC.3.2.1.1)): 5.25 µM
8 | O=C(Nc1ccc2c(c1)OCO2)c1cccnc1 [Compound 2j, N-(Benzo[1,3]dioxol-5-yl)nicotinamide] | 85.94 | 75.4 | 28.3 | 39 | 42.4 | 45 | 47.9 | 57.25 ± 0.11 | 34.8 | 37.7 | 43.7 | 46 | 50.1 | 97.62 ± 0.24 | 59 | 68 | 75 | 92.7 | 93 | 20.3 ± 0.22 | α-Amylase Inhibition % (α-amylase (EC.3.2.1.1); 6 µg): 74.67%; α-Amylase Inhibition % (α-amylase (EC.3.2.1.1); 8 µg): 68.96%; α-Amylase Inhibition % (α-amylase (EC.3.2.1.1); 10 µg): 57.1%; IC50 (α-amylase (EC.3.2.1.1)): 5.47 µM
9 | O=C(c1ccccc1)c1ccc2n1CCC2C(=O)O (centres unmarked) [Ketorolac, reference compound] | – | – | – | – | – | – | – | – | – | – | – | – | – | – | 91 | 92 | 93 | 93.5 | 94 | 11.8 ± 0.17 | –

Source: publication PMC12494831, “Discovery of new pyridine 3-carboxylic acid-based pharmacophores as dual anti-inflammatory and anti-hyperglycemic agents” (Scientific Reports, 2025)
